# From US20220356494A1, “METHODS AND COMPOSITIONS FOR TREATING CANCER” (Engine Biosciences Pte. Ltd., priority 2019, published 2022)
# Like-named read-outs stand apart in the source and are kept apart here.
# How the values were obtained:
# RON [1] = target: T1, RON (Homo sapiens, UniProt Q04912); experiment: RON inhibition (percent activity vs log concentration)
# Description: (§1) The plot indicates percent activity of RON or cMet as a function of the log concentration of the compound (in moles, M). From the plot, the IC50 values may be obtained.
# cMet = cMet (Homo sapiens, UniProt P08581); experiment: cMet inhibition (percent activity vs log concentration)
# Description: as §1
# [2] = system: MDA-MB-231 tumor xenografts; experiment: MDA-MB-231 tumor xenograft, tumor volume
# cancer cell lines = experiment: Cellular IC50 (GI50) of RON inhibitors with or without Dasatinib in cancer cell lines; assay type: cell-based; settings: all tested cell lines; co-administered with Dasatinib
# Text: FIGS. 12A-12C show additional example data of a small molecule approach to inhibit SRC and RON in cancer cells. As described herein, one approach to validate the CombiGEM results (dual SRC and RON knockout using Cas and DNA constructs) can include using small molecule inhibitors to reduce function of SRC or RON. […] FIG. 12B and FIG. 12C show plots of GI50 as a function of treatment with RON inhibitors Foretinib or a Met/Ron inhibitor, respectively, co-administered with Dasatinib.
# 506 cell lines = experiment: Sensitivity of 506 cell lines to Dasatinib; assay type: cell-based; settings: FIG. 10
# Text: The bar plot indicates the effect of various SRC inhibitors, YES inhibitors, or dual SRC/YES inhibitors on the sensitivity of the cells to inhibition; along with an inhibitor for an unrelated/control kinase WEE1. Each bar represents a different type of inhibitor, which may inhibit SRC, YES, SRC and YES, or WEE1. Bars 1-2 from the left of the plot indicate cells are most sensitive to inhibition when SRC and YES are both inhibited. Bars 3-6 from the left of the plot indicate sensitivity to inhibition for cells treated with SRC inhibitors. Bar 7 from the left of the plot indicates sensitivity to inhibition for cells treated with WEE1 inhibitor. […] from the left of the plot also indicate sensitivity to inhibition for cells treated with SRC inhibitors. Bar 9 from the left of the plot indicates sensitivity to inhibition for cells treated with YES1 inhibitor. Bar 10 from the left of the plot indicates sensitivity to inhibition for cells treated with WEE1 inhibitor. Increased sensitivity to inhibition is observed in SRC and YES dual inhibition, compared to SRC-only inhibition or YES-only inhibition. In FIG. 10, 506 cell lines are compared for sensitivity to Dasatinib (SRC and YES inhibitor). 119 of the 506 cell lines are more sensitive to Dasatinib than MDA-MB-231 cells. […] Cell lines that are sensitive to Dasatinib are more sensitive to other dual inhibitors of YES and SRC.
# RON [3] = target: T1, RON; experiment: RON dissociation constant (Kd); assay type: binding
# Text: The four compounds “ENG-009”, “ENG-015”, “ENG-018”, and“ENG-035” are shown, along with their Ron and cMet inhibitory activities.
# MDA-MB-231 cells = experiment: MDA-MB-231 cell viability as a function of SU-6656 concentration, with or without Dasatinib co-treatment; assay type: cell-based; settings: Homo sapiens, MDA-MB-231, MDA-MB-231, read-out: concentration of SU-6656 at 50% viability
# Description: An additional approach to validate the CombiGEM results (dual SRC and YES knockout using Cas and DNA constructs) can include using small molecule inhibitors to reduce the function of SRC or YES. […] One group of cells is treated with only the YES inhibitor and the vehicle control (DMSO only). Two groups of cells are co-treated with Dasatinib, a SRC inhibitor, at a concentration of 500 nM or 1 μM. The control group (DMSO only, no Dasatinib) has a 50% viability at a concentration of 68.6 μM of SU-6656, compared to 20.4 μM for the cells co-treated with 500 nM Dasatinib and 12.7 μM for the cells co-treated with 1 μM Dasatinib.
# T1 sequence (Q04912 25-1400): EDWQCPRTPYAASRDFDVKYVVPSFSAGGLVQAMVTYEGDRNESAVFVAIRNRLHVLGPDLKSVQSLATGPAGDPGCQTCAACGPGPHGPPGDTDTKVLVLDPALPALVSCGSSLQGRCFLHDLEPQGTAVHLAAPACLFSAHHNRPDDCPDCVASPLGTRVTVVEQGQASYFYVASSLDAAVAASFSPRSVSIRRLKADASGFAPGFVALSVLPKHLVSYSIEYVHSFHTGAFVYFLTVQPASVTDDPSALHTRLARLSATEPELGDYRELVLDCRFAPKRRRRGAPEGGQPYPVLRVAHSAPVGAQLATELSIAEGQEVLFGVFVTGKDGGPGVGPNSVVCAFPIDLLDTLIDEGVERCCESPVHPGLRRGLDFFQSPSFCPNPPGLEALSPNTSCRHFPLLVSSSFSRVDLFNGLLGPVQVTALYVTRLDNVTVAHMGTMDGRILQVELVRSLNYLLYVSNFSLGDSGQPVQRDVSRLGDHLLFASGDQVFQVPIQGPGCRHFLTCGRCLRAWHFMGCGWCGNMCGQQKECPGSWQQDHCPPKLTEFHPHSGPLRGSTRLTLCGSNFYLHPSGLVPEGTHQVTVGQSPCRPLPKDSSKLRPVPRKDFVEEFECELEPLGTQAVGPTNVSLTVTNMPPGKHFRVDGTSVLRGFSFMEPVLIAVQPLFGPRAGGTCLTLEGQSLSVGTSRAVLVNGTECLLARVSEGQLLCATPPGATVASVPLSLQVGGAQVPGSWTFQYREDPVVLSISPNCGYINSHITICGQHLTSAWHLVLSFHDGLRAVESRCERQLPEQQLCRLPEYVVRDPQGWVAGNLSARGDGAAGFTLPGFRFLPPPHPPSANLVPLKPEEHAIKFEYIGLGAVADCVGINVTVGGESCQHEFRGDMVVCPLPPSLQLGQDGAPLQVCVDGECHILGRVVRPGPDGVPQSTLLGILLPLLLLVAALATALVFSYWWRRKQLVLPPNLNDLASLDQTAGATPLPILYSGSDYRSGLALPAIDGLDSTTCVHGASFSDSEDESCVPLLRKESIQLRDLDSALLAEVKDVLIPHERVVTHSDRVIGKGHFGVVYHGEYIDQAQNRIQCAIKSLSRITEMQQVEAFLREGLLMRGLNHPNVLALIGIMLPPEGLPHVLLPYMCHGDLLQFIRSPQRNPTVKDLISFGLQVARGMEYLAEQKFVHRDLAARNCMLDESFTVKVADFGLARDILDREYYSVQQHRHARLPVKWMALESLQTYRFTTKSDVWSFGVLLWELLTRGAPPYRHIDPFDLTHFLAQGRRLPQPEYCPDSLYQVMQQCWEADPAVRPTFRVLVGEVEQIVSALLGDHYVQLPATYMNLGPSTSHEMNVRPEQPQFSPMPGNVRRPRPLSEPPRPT
# Chain of cMet (P08581 25-1390): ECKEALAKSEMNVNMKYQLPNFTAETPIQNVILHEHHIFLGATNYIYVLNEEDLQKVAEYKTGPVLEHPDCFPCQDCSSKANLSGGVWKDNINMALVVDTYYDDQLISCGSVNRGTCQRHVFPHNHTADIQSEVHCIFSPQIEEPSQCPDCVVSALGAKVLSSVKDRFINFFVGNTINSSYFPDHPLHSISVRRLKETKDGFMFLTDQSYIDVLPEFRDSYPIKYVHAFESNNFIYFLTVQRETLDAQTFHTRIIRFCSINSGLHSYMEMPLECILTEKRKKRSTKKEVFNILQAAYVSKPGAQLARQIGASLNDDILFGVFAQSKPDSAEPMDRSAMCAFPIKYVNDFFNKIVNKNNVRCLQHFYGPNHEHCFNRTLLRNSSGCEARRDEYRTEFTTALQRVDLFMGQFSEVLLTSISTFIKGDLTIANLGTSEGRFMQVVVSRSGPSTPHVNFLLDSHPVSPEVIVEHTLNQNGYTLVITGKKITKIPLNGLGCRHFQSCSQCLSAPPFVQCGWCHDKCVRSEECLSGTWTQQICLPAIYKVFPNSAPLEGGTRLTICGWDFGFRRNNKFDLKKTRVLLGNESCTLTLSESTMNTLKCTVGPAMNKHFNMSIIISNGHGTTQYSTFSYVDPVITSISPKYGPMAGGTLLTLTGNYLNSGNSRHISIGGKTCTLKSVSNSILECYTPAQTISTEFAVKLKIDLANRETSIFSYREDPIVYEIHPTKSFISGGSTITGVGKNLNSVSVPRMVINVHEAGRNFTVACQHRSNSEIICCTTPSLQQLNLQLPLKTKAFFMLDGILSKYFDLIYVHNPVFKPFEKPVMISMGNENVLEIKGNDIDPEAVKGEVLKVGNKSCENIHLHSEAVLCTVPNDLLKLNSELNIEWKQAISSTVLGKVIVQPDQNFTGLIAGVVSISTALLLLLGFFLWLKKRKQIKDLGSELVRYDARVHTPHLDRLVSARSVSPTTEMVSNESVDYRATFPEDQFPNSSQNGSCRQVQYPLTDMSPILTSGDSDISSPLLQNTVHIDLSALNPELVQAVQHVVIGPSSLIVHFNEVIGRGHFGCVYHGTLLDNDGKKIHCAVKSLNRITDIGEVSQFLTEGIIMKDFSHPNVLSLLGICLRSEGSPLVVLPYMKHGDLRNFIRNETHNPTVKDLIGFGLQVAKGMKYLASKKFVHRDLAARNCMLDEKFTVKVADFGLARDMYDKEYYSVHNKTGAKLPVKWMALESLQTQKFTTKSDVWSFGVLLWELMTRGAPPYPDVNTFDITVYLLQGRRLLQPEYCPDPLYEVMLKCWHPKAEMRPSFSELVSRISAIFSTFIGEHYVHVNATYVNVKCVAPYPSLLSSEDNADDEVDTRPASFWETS
smiles,measurement,setting,value
"CCOc1ccn(-c2ccc(F)cc2)c(=O)c1C(=O)Nc1ccc(Oc2ccnc(N)c2Cl)c(F)c1 [BMS777607, N-[4-[(2-amino-3-chloro-4-pyridinyl)oxy]-3-fluorophenyl]-4-ethoxy-1-(4-fluorophenyl)-2-oxo-3-pyridinecarboxamide]",IC50,RON [1],8.5 nM
same,selectivity for RON over cMet (cMet IC50/RON IC50),RON [1]; ratio,0.9
same,IC50,cMet,7.3 nM
same,tumor growth compared to vehicle control,"[2]; RON inhibitor only, BMS777607 20 mpk",slightly lower compared to the vehicle control
same,potency (GI50) of RON inhibitor in the presence of Dasatinib vs its absence (DMSO),cancer cell lines,potency (lower GI50) is greater for the RON inhibitor in the presence of Dasatinib than in its absence
"Cc1nc(Nc2ncc(C(=O)Nc3c(C)cccc3Cl)s2)cc(N2CCN(CCO)CC2)n1.O [Dasatinib, N-(2-chloro-6-methylphenyl)-2-[[6-[4-(2-hydroxyethyl)-1-piperazinyl]-2-methyl-4-pyrimidinyl]amino]-5-thiazole carboxamide monohydrate]",tumor growth compared to vehicle control,"[2]; SRC inhibitor only, Dasatinib 10 mpk",slightly lower compared to the vehicle control
same,number of the 506 cell lines more sensitive to Dasatinib than MDA-MB-231 cells,506 cell lines,119
"Cn1cnc(-c2nc3c(Oc4ccc(NC(=O)c5cnn(-c6ccccc6)c5C(F)(F)F)cc4F)ncnc3s2)c1 [ENG-009, N-(3-fluoro-4-((2-(1-methyl-1H-imidazol-4-yl)thiazolo[5,4-d]pyrimidin-7-yl)oxy)phenyl)-1-phenyl-5-(trifluoromethyl)-1H-pyrazole-4-carboxamide]",IC50,RON [1],222 to 291 nM
same,cMet inhibition (in words),cMet,inactive
"CCN1CCN(CCCOc2cc3nccc(Oc4c(F)cc(NC(=O)NN5C(=O)CSC5c5c(F)cccc5F)cc4F)c3cc2OC)CC1 (stereo not shown) [ENG-013, 1-(2-(2,6-difluorophenyl)-4-oxothiazolidin-3-yl)-3-(4-((7-(3-(4-ethylpiperazin-1-yl)propoxy)-6-methoxyquinolin-4-yl)oxy)-3,5-difluorophenyl)urea]",IC50,RON [1],1.6 nM
same,selectivity for RON over cMet (cMet IC50/RON IC50),RON [1],approximately 10 fold
"Cn1cnc(-c2cc3nccc(Oc4ccc(NC(=O)c5cnn(-c6ccccc6)c5C(F)(F)F)cc4F)c3cn2)c1 [ENG-015, N-(3-fluoro-4-((7-(1-methyl-1H-imidazol-4-yl)-1,6-naphthyridin-4-yl)oxy)phenyl)-1-phenyl-5-(trifluoromethyl)-1H-pyrazole-4-carboxamide]",IC50,RON [1],2.8 nM
same,selectivity for RON over cMet (cMet IC50/RON IC50),RON [1],approximately 50 fold
same,IC30 for RON,RON [1]; printed as IC30,2.8 nM
same,selectivity for RON over cMet (cMet IC50/RON IC50),RON [1]; ratio,> 47
same,IC50,cMet,133 nM
"Cn1cnc(-c2ccc3c(Oc4ccc(NC(=O)c5cnn(-c6ccccc6)c5C(F)(F)F)cc4F)n[nH]c3c2)c1 [ENG-018, N-(3-fluoro-4-((6-(1-methyl-1H-imidazol-4-yl)-1H-indazol-3-yl)oxy)phenyl)-1-phenyl-5-(trifluoromethyl)-1H-pyrazole-4-carboxamide]",RON inhibition (in words),RON [1],relatively inactive
same,cMet inhibition (in words),cMet,relatively inactive
"Cn1cnc(-c2nc3nccc(Oc4ccc(NC(=O)c5cnn(-c6ccccc6)c5C(F)(F)F)cc4F)c3s2)c1 [ENG-035, N-(3-fluoro-4-((2-(1-methyl-1H-imidazol-4-yl)thiazolo[4,5-b]pyridin-7-yl)oxy)phenyl)-1-phenyl-5-(trifluoromethyl)-1H-pyrazole-4-carboxamide]",selectivity for RON over cMet (cMet IC50/RON IC50),RON [1],~2.3 fold
same,Kd,RON [3],43 nM
"COc1cc2c(Oc3ccc(NC(=O)C4(C(=O)Nc5ccc(F)cc5)CC4)cc3F)ccnc2cc1OCCCN1CCOCC1 [Foretinib, N1′-[3-fluoro-4-[[6-methoxy-7-(3-morpholinopropoxy)-4-quinolyl]oxy]phenyl]-N1-(4-fluorophenyl)cyclopropane-1,1-dicarboxamide]",potency (GI50) of RON inhibitor in the presence of Dasatinib vs its absence (DMSO),cancer cell lines,potency (lower GI50) is greater for the RON inhibitor in the presence of Dasatinib than in its absence
"CN(C)S(=O)(=O)c1ccc2c(c1)/C(=C/c1cc3c([nH]1)CCCC3)C(=O)N2 [SU-6656, (3Z)-N,N-Dimethyl-2-oxo-3-(4,5,6,7-tetrahydro-1H-indol-2-ylmethylidene)-2,3-dihydro-1H-indole-5-sulfonamide]",IC50,"MDA-MB-231 cells; DMSO only, no Dasatinib",68600 nM
same,IC50,MDA-MB-231 cells; co-treated with 500 nM Dasatinib,20400 nM
same,IC50,MDA-MB-231 cells; co-treated with 1 μM Dasatinib,12700 nM
"CC1=C(C#N)C(c2ccc3[nH]nc(OCCOC(C)C)c3c2)C(C#N)=C(C)N1 [tool compound 2, 4-(3-(2-isopropoxyethoxy)-1H-indazol-5-yl)-2,6-dimethyl-1,4-dihydropyridine-3,5-dicarbonitrile]",IC50,RON [1],8600 nM
